Assay results as given in ChEMBL document CHEMBL1955768, “Impact of stereochemistry on the biological activity of novel oleandomycin derivatives” (Bioorg Med Chem, 2012).
In brackets after ≈: the same amount, converted by molar mass. Activity calls are given as the source filed them. No cut-off for these calls is given here.

Tests used:
Haemophilus influenzae = assay: Antibacterial activity against Haemophilus influenzae ATCC 49247 by broth microdilution method; type: functional
Streptococcus pyogenes = assay: Antibacterial activity against Streptococcus pyogenes ATCC 700294 by broth microdilution method; type: functional; settings: M1 GAS
THP-1 = assay: Cytotoxicity against human THP1 cells at 100 uM after 24 hrs by MTS assay; type: cell-based; settings: thp-1, 24 h
Moraxella catarrhalis = assay: Antibacterial activity against Moraxella catarrhalis ATCC 23246 by broth microdilution method; type: functional
Streptococcus pneumoniae = assay: Antibacterial activity against Streptococcus pneumoniae ATCC 49619 by broth microdilution method; type: functional
Splenocyte = assay: Inhibition of LPS-induced IL-6 production in mouse splenocytes at 50 uM after 2 hrs preincubation by ELISA; type: functional
Staphylococcus aureus = assay: Antibacterial activity against Staphylococcus aureus ATCC 13709 by broth microdilution method; type: functional
Mus musculus = assay: Antiinflammatory activity against LPS-induced lung neutrophilia in BALB/cJ mouse model assessed as reduction in neutrophil numbers in bronchoalveolar lavage fluid at 100 mg/kg, ip treated 2 hrs before LPS challenge measured after 24 hrs by hematological analyzer; type: functional, organism-based; parameters: dose 100 mg/kg

With `CO[C@H]1C[C@H](O[C@H]2[C@H](C)[C@@H](O[C@@H]3O[C@H](C)C[C@H](N(C)C)[C@H]3O)[C@@H](C)C[C@H](C)[C@H](O)[C@H](C)[C@@H](O)[C@@H](C)[C@@H](C)OC(=O)[C@@H]2C)O[C@@H](C)[C@@H]1O` the MIC (Haemophilus influenzae) was greater than 64 µg/mL, the MIC (Streptococcus pyogenes) was greater than 64 µg/mL and the Activity (THP-1) was “Non-toxic”. It also gave an MIC (Moraxella catarrhalis) greater than 64 µg/mL, an MIC (Streptococcus pneumoniae) greater than 64 µg/mL and an inhibition at 50 µM (Splenocyte) of 12%. The MIC (Staphylococcus aureus) was greater than 64 µg/mL.

For `CO[C@H]1C[C@H](O[C@H]2[C@H](C)[C@@H](O[C@@H]3O[C@H](C)C[C@H](N(C)C)[C@H]3O)[C@@H](C)C[C@H](C)C(=O)[C@H](C)[C@@H](O)[C@@H](C)[C@@H](C)OC(=O)[C@@H]2C)O[C@@H](C)[C@@H]1O`, the MIC (Haemophilus influenzae) was greater than 64 µg/mL, the MIC (Streptococcus pyogenes) was greater than 64 µg/mL and the Activity (THP-1) was “Non-toxic”. For the same compound, the MIC (Moraxella catarrhalis) was greater than 64 µg/mL, the MIC (Streptococcus pneumoniae) was greater than 64 µg/mL and the inhibition at 50 µM (Splenocyte) was 42%. The MIC (Staphylococcus aureus) was greater than 64 µg/mL.

`C=C1C[C@H](C)[C@H](O[C@@H]2O[C@H](C)C[C@H](N(C)C)[C@H]2O)[C@@H](C)[C@H](O[C@H]2C[C@H](OC)[C@@H](O)[C@H](C)O2)[C@@H](C)C(=O)O[C@H](C)[C@H](C)[C@H](O)[C@@H](C)[C@H]1O` was tested, and the MIC (Haemophilus influenzae) was greater than 64 µg/mL, the MIC (Streptococcus pyogenes) was greater than 64 µg/mL and the Activity (THP-1) was “Non-toxic”. The MIC (Moraxella catarrhalis) was greater than 64 µg/mL, the MIC (Streptococcus pneumoniae) was greater than 64 µg/mL and the inhibition at 50 µM (Splenocyte) was 13%. For the same compound, the MIC (Staphylococcus aureus) was greater than 64 µg/mL.

With `CO[C@H]1C[C@H](O[C@H]2[C@H](C)[C@@H](O[C@@H]3O[C@H](C)C[C@H](N(C)C)[C@H]3O)[C@@H](C)C[C@H](C)[C@@H](O)[C@H](C)[C@@H](O)[C@@H](C)[C@@H](C)OC(=O)[C@@H]2C)O[C@@H](C)[C@@H]1O` the MIC (Haemophilus influenzae) was greater than 64 µg/mL, the Activity (Mus musculus) was “Active” and the MIC (Streptococcus pyogenes) was greater than 64 µg/mL. For the same compound, the Activity (THP-1) was “Non-toxic”, the MIC (Moraxella catarrhalis) was greater than 64 µg/mL and the MIC (Streptococcus pneumoniae) was greater than 64 µg/mL. It also gave an inhibition at 50 µM (Splenocyte) of 2% and an MIC (Staphylococcus aureus) greater than 64 µg/mL.

With `CO[C@H]1C[C@H](O[C@H]2[C@H](C)[C@@H](O[C@@H]3O[C@H](C)C[C@H](N(C)C)[C@H]3O)[C@@H](C)C[C@@H](C)[C@H](O)[C@H](C)[C@@H](O)[C@@H](C)[C@@H](C)OC(=O)[C@@H]2C)O[C@@H](C)[C@@H]1O` the MIC (Haemophilus influenzae) was greater than 64 µg/mL, the Activity (Mus musculus) was “Active” and the MIC (Streptococcus pyogenes) was greater than 64 µg/mL. The Activity (THP-1) was “Non-toxic”, the MIC (Moraxella catarrhalis) was greater than 64 µg/mL and the MIC (Streptococcus pneumoniae) was 4 µg/mL (≈ 5.92 µM). For the same compound, the inhibition at 50 µM (Splenocyte) was 61% and the MIC (Staphylococcus aureus) was greater than 64 µg/mL.

In the case of `CO[C@H]1C[C@H](O[C@H]2[C@H](C)[C@@H](O[C@@H]3O[C@H](C)C[C@H](N(C)C)[C@H]3O)[C@@H](C)C[C@@H](C)C(=O)[C@H](C)[C@@H](O)[C@@H](C)[C@@H](C)OC(=O)[C@@H]2C)O[C@@H](C)[C@@H]1O`, the MIC (Haemophilus influenzae) is reported as greater than 64 µg/mL, the MIC (Streptococcus pyogenes) is reported as 0.5 µg/mL (≈ 0.742 µM) and the Activity (THP-1) is reported as “Non-toxic”. The MIC (Moraxella catarrhalis) was 2 µg/mL (≈ 2.97 µM), the MIC (Streptococcus pneumoniae) was 0.25 µg/mL (≈ 0.371 µM) and the inhibition at 50 µM (Splenocyte) was 69%. The MIC (Staphylococcus aureus) was 4 µg/mL (≈ 5.94 µM).

For `C=C1C[C@H](C)[C@H](O[C@@H]2O[C@H](C)C[C@H](N(C)C)[C@H]2O)[C@@H](C)[C@H](O[C@H]2C[C@H](OC)[C@@H](O)[C@H](C)O2)[C@@H](C)C(=O)O[C@H](C)[C@H](C)[C@H](O)[C@@H](C)[C@@H]1O`, the MIC (Haemophilus influenzae) was greater than 64 µg/mL, the MIC (Streptococcus pyogenes) was greater than 64 µg/mL and the Activity (THP-1) was “Non-toxic”. It also gave an MIC (Moraxella catarrhalis) greater than 64 µg/mL, an MIC (Streptococcus pneumoniae) greater than 64 µg/mL and an inhibition at 50 µM (Splenocyte) of 13%. It also gave an MIC (Staphylococcus aureus) greater than 64 µg/mL.

`CO[C@H]1C[C@H](O[C@H]2[C@H](C)[C@@H](O[C@@H]3O[C@H](C)C[C@H](N(C)C)[C@H]3O)[C@@H](C)C[C@@H](C)[C@@H](O)[C@H](C)[C@@H](O)[C@@H](C)[C@@H](C)OC(=O)[C@@H]2C)O[C@@H](C)[C@@H]1O` was tested, and the MIC (Haemophilus influenzae) was greater than 64 µg/mL, the MIC (Streptococcus pyogenes) was greater than 64 µg/mL and the Activity (THP-1) was “Non-toxic”. For the same compound, the MIC (Moraxella catarrhalis) was greater than 64 µg/mL, the MIC (Streptococcus pneumoniae) was greater than 64 µg/mL and the inhibition at 50 µM (Splenocyte) was 2%. The MIC (Staphylococcus aureus) was greater than 64 µg/mL.
